Target: T1, GPR40 (Homo sapiens, UniProt O14842)
T1 construct: expressed in transfected cells; host or cells: HEK293 cells stably expressing GPR40 (Hygromycin selection)
Test: IP1 accumulation assay in HEK293 cells stably expressing GPR40
Assay type: cell-based
Method in brief: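 HEK293 cells stably expressing human GPR40 were incubated with compounds (10-point, 3-fold dilution series) for 2 h at 37 °C, then IP1 was detected by HTRF (665/615 nm ratio). Effect was normalised to DMSO blank and AMG-1638 as 100%, and EC50 was derived from dose curves.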

[1] = IP1 accumulation, HEK293 cells stably expressing GPR40, 2 hours at 37° C., % effect relative to AMG-1638, table of Biological Example 1
[2] = Tables A-1a to A-7b (structure-property relationship), obtained by methods of Biological Example 1

T1 sequence (O14842 whole entry): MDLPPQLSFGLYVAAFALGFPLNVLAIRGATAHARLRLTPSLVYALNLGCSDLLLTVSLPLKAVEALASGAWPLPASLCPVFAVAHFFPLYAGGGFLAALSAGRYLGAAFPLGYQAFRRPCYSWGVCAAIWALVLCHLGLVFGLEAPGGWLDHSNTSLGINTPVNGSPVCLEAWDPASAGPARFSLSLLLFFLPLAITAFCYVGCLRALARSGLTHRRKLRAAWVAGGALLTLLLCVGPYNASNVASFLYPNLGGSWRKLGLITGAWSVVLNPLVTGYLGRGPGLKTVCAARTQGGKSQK

| Structure (SMILES) | EC50 [1] | EC50 [2] | EC50 (Table A-8 (additional examples), obtained by methods of Biological Example 1) |
| --- | --- | --- | --- |
| COc1ccc(C(=O)N(CC(C)(C)CCn2cc(CCCCCCCCCCCCCC(=O)NCCN(CCC(=O)NCCN)CCC(=O)NCCN)nn2)c2cccc(C)n2)c(N2CCC(COc3cc([C@@H](CC(=O)O)C4CC4)ccn3)CC2)c1 [Example 116] | 0.21 nM | 0.21 nM |  |
| COc1ccc(C(=O)N(CC(C)(C)CCn2cc(CCCCC(=O)NCCN(CCC(=O)NCCN)CCC(=O)NCCN)nn2)c2cccc(C)n2)c(N2CCC(COc3cc([C@@H](CC(=O)O)C4CC4)ccn3)CC2)c1 [Example 195] | > 10000 nM |  |  |
| COc1ccc(F)c(-c2ccc(COc3cccc([C@@H](CC(=O)O)C4CC4)c3)cc2CC(C)(C)Cn2cc(CCCCCCCCCCCCCCC(=O)NCC[N+](C)(CCC(=O)NCCN)CCC(=O)NCCN)nn2)c1 [Example 58] | 36.5 nM | 8.14 nM |  |
| COc1ccc(F)c(-c2ccc(COc3cccc([C@@H](CC(=O)O)C4CC4)c3)cc2CC(C)(C)Cn2cc(CCCCC(=O)NCCC[N+](C)(CC(=O)[O-])CC(=O)O)nn2)c1 (stereo partly shown) [Example 213] | 358 nM |  |  |
| COc1ccc(F)c(-c2ccc(COc3cccc([C@@H](CC(=O)O)C4CC4)c3)cc2CC(C)(C)Cn2cc(CCCCCCCCCC(=O)NCC[N+](C)(CCC(=O)NCCN)CCC(=O)NCCN)nn2)c1 [Example 192] | 250 nM | 250 nM | 251 nM |
| C[C@H](C(=O)O)[C@H](c1ccc2c(c1)O[C@@H](C1CCN(Cc3cc(-c4cn(CCCCCCCCCCCCCC(=O)NCCN(CCC(=O)NCCN)CCC(=O)NCCN)nn4)ccc3OC(F)(F)F)CC1)CC2)C1CC1 [Example 5] | 15.2 nM | 15.2 nM |  |
| COc1ccc(C(=O)N(CC(C)(C)CCn2cc(CCCCCCCCCCCCCCC(=O)NCC[N+](C)(CCC(=O)NCCN)CCC(=O)NCCN)nn2)c2cccc(C)n2)c(N2CCC(c3cc4ccc([C@@H](CC(=O)O)C5CC5)cc4o3)CC2)c1 [Example 177] | 0.08 nM |  |  |
| COc1ccc(F)c(-c2ccc(COc3cccc([C@@H](CC(=O)O)C4CC4)c3)cc2CC(C)(C)Cc2cn(CCCCCCCCCCCC(=O)NCCN(CCC(=O)NCCN)CCC(=O)NCCN)nn2)c1 [Example 92] | 212 nM | 212 nM |  |

More lines, now with the values ahead:

| EC50 [1] | EC50 [2] | EC50 (Table A-8 (additional examples), obtained by methods of Biological Example 1) | Structure (SMILES) |
| --- | --- | --- | --- |
| 1 nM |  |  | COc1ccc(C(=O)N(CC(C)(C)CCCCCCn2cc(CCCCCCCCCCCC(=O)NCCC[N+](C)(CC(=O)[O-])CC(=O)O)nn2)c2cccc(C)n2)c(N2CCC(COc3cc([C@@H](CC(=O)O)C4CC4)ccn3)CC2)c1 (stereo partly shown) [Example 209] |
| 0.1 nM |  |  | COc1ccc(C(=O)N(CC(C)(C)CCCCCCn2cc(CCCCCCCCCCCCCCCCCC(=O)NCC[N+](C)(C)CCCS(=O)(=O)[O-])nn2)c2cccc(C)n2)c(N2CCC(COc3cc([C@@H](CC(=O)O)C4CC4)ccn3)CC2)c1 [Example 73] |
| 0.29 nM | 0.29 nM |  | COc1ccc(C(=O)N(CC(C)(C)CCn2cc(CCCCCCCCCCCCCC(=O)NCC[N+](C)(CCC(=O)NCCN)CCC(=O)NCCN)nn2)c2cccc(C)n2)c(N2CCC(COc3cc([C@@H](CC(=O)O)C4CC4)ccn3)CC2)c1 [Example 117] |
| 683 nM | 683 nM |  | COc1ccc(C(=O)N(CC(C)(C)CCn2cc(CCCCCCCCC(=O)NCCC[N+](C)(CC(=O)[O-])CC(=O)O)nn2)c2cccc(C)n2)c(N2CCC(COc3cc([C@@H](CC(=O)O)C4CC4)ccn3)CC2)c1 (stereo partly shown) [Example 217] |
| 20.5 nM |  |  | COc1ccc(C(=O)N(CC(C)(C)CCCCCCn2cc(CCCCCCCCC(=O)NCCC[N+](C)(CC(=O)[O-])CC(=O)O)nn2)c2cccc(C)n2)c(N2CCC(COc3cc([C@@H](CC(=O)O)C4CC4)ccn3)CC2)c1 (stereo partly shown) [Example 207] |
| 4.58 nM | 4.58 nM |  | COc1ccc(C(=O)N(CC(C)(C)CCCCCCn2cc(CCCCCCC(=O)NCC[N+](C)(CCC(=O)NCCN)CCC(=O)NCCN)nn2)c2cccc(C)n2)c(N2CCC(COc3cc([C@@H](CC(=O)O)C4CC4)ccn3)CC2)c1 [Example 99] |
| 0.44 nM | 0.44 nM |  | COc1ccc(C(=O)N(CC(C)(C)CCn2cc(CCCCCCCCCCCCCCCC(=O)NCCC[N+](C)(CC(=O)[O-])CC(=O)O)nn2)c2cccc(C)n2)c(N2CCC(COc3cc([C@@H](CC(=O)O)C4CC4)ccn3)CC2)c1 (stereo partly shown) [Example 218] |

Source: US20250223281A1, “ANTIDIABETIC COMPOUNDS AND COMPOSITIONS” (REZUBIO PHARMACEUTICALS CO., LTD, priority 2022, published 2025)
